One test relates to α-glucosidase. As to the kind of experiment: In vitro α-glucosidase inhibitory activity (pNPG substrate, absorbance at 405 nm). It counts as biochemical. As to the method: After the pre-incubation, pNPG (substrate, 30 μL, 5 mM) prepared in 0.1 M phosphate buffer (pH 6.8) was poured into the wells of the microplate, which were then incubated at 37 °C for 20 minutes. […] For inhibition studies, various concentrations of test samples were utilized. […] All data were presented as means ± SD values, obtained from a microplate reader for all experiments.

In the next test the test system is α-amylase. As to the kind of experiment: In vitro α-amylase inhibition activity (starch-iodine, 580 nm). It counts as biochemical.

Protocol for α-amylase: In vitro α-amylase inhibition studies were performed following a reported methodology with slight modification.[20] First, to prepare our reaction mixture, 10 μL of enzyme solution (0.1 mg mL^−1) was combined with a 10 mM phosphate buffer at pH 6.9 (6 mM NaCl), and then mixed with the various concentrations of the tested sample. The resultant reaction mixtures placed in a microplate were incubated for 30 minutes at 37 °C. After the incubation period, 40 μL of starch solution (1%) was added; subsequently, this assay plate was incubated at 37 °C for 10 minutes. Finally, the reaction was terminated by adding 20 μL of 1.0 M HCl to the prepared solution, followed by the addition of 75 μL of iodine solution. Quantification was performed spectrophotometrically at 580 nm. […] Inhibition activity (%) was measured using eqn (1).1 [drawing 1] Here, the control sample excluded the α-amylase and the tested sample. The inhibitor concentration used to inhibit α-amylase activity (50%) under assay was determined as IC50 values. The findings were depicted as means ± SD values, obtained from microplate readers.

Regarding “(E)-2-((adamantan-2-ylimino)methyl)-6-bromo-4-chlorophenol [AHB]”, the “α-glucosidase inhibition, result in words” value in the test on α-glucosidase was “relatively inactive”. The “α-amylase inhibition, result in words” value with α-amylase is “relatively inactive”.

The values are drawn from paper PMC12134986, “Synthesis, characterization and antidiabetic studies of novel amantadine-derived Schiff base (AHB) and its Zn(II), Co(II), Cr(III) and VO(IV) complexes” (RSC Advances, 2025).
